Patent US20260250257A1, “ANTIBACTERIAL AND SYNERGISTIC ACTIVE COMPOUND AND USE THEREOF” (EAST CHINA UNIVERSITY OF SCIENCE AND TECHNOLOGY, priority 2023, published 2026)
≈ marks a conversion by molar mass, not a printed value.

Key:
[1] = tested on: ATCC13883 strain (Klebsiella pneumoniae); assay: Checkerboard antibacterial synergistic activity test with polymyxin E (FIC); assay type: cell-based; design: key: FIC≤0.5 synergy; 0.5–1 additive; 1–2 indifferent; ≥2 antagonism; settings: combined with polymyxin E
Summary of the method: (§1)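 Polymyxin E was diluted in MH broth to 16–0.015 μg/ml and the test compound to 256–4 μg/ml (two-fold series, pre-mixing concentrations), combined checkerboard-style in 96-well plates with bacterial suspension and blank controls, and incubated at 37° C. for 16 h. FIC ≤0.5 was scored synergistic, >0.5 to <1 additive, 1–2 indifferent, ≥2 antagonistic.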

[2] = tested on: ATCC19606 strain (Acinetobacter baumannii); assay: as above; assay type: cell-based; design: key: FIC≤0.5 synergy; 0.5–1 additive; 1–2 indifferent; ≥2 antagonism; settings: combined with polymyxin E
Summary of the method: as §1

[3] = tested on: ATCC25922 strain (Escherichia coli); assay: as above; assay type: cell-based; design: key: FIC≤0.5 synergy; 0.5–1 additive; 1–2 indifferent; ≥2 antagonism; settings: combined with polymyxin E
Summary of the method: as §1

[4] = tested on: ATCC9027 strain (Pseudomonas aeruginosa); assay: as above; assay type: cell-based; design: key: FIC≤0.5 synergy; 0.5–1 additive; 1–2 indifferent; ≥2 antagonism; settings: combined with polymyxin E
Summary of the method: as §1

[5] = tested on: ATCC13883 strain (Klebsiella pneumoniae); assay: Broth microdilution, antibacterial activity of the compound used alone; assay type: cell-based; settings: for MIC: read-out: Antibacterial activity of the compound of Formula I, ATCC13883
Text: (§2) The broth microdilution method was used to test the antibacterial effects of the compounds of the present invention against various Gram-negative bacterial strains when used alone.

[6] = tested on: ATCC19606 strain (Acinetobacter baumannii); assay: as above; assay type: cell-based; settings: for MIC: read-out: Antibacterial activity of the compound of Formula I, ATCC19606
Text: as §2

[7] = tested on: ATCC25922 strain (Escherichia coli); assay: as above; assay type: cell-based; settings: for MIC: read-out: Antibacterial activity of the compound of Formula I, ATCC25922
Text: as §2

[8] = tested on: ATCC9027 strain (Pseudomonas aeruginosa); assay: as above; assay type: cell-based; settings: for MIC: read-out: Antibacterial activity of the compound of Formula I, ATCC9027
Text: as §2

[9] = tested on: clinical strains of Acinetobacter baumannii; assay: Synergistic effect (FIC) on inhibiting clinical strains of Acinetobacter baumannii; assay type: cell-based; settings: for FIC: with polymyxin E
Description: Polymyxin E was diluted in sterile MH broth medium to concentrations of 16, 8, 4, 2, 1, 0.5, 0.25, 0.125, 0.0625, 0.031, and 0.015 μg/ml, and the drug to be tested was diluted to concentrations of 256, 128, 64, 32, 16, 8, and 4 μg/ml. According to the checkerboard method, combinations of the drug to be tested and polymyxin at different concentrations in ascending order were placed into a 96-well plate, and corresponding blank control groups were set up. 50 μl of the drug solution was added to each well, then 100 μl of bacterial liquid was added, and incubated in a 37° C. incubator for 16 hours. […] Calculation and judgment criteria:
Fractional Inhibitory Concentration (FIC) is calculated as follows: […]
Judgment criteria: FIC≤0.5: synergistic effect; 0.5<FIC<1: additive effect; 1<FIC<2: indifferent effect; FIC≥2: antagonistic effect.
(§3) Compound I-82 of the present invention was used as the representative compound and tested against clinical strains of Acinetobacter baumannii. […] The selected A. baumannii strains were isolated from hospital clinical samples and preserved in the laboratory for research purposes.

[10] = tested on: ATCC19606 strains (Acinetobacter baumannii); assay: In vivo synergistic bactericidal activity with polymyxin E, mouse bacteremia model; design: species or system Balb/c mice; settings: for survival rate / synergistic effects with Polymyxin E in vivo: Polymyxin E 0.5 mg/kg + compound 16 mg/kg, Balb/c mice infected with ATCC19606; for survival rate: intraperitoneal
Description: Representative compounds I-14 and I-82 were tested for their in vivo synergistic bactericidal activities when combined with polymyxin E. The specific method is as follows:
Normal Balb/c mice (6-8 weeks old) were used, and the animals were randomly divided into four groups (5 mice per group): • I: Control group • II: Polymyxin E at 0.5 mg/kg body weight • III: Polymyxin E at 0.5 mg/kg body weight+Compound I-14 at 16 mg/kg • IV: Polymyxin E at 0.5 mg/kg body weight+Compound I-82 at 16 mg/kg
Freshly cultured ATCC19606 strains (logarithmic growth phase) were washed with saline, adjusted to an OD600 of ~1.0, and mixed at 1:1 (v/v) with 10% porcine mucin. Each mouse was intraperitoneally administered 500 μl of the mixture. 1 hour later, an intraperitoneal injection was given again, with the control group receiving only saline.

[11] = tested on: clinical strains of Acinetobacter baumannii; assay: MIC of polymyxin E against polymyxin E-resistant clinical strains; assay type: cell-based
Text: as §3

Cc1ccc(Oc2ccccc2-c2csc(N=C(N)N)n2)c(C)c1 [Compound I-82]
Synergistic activity (FIC value) ATCC13883 [1]: 0.16 | Synergistic activity (FIC value) ATCC19606 [2]: 0.03 | Synergistic activity (FIC value) ATCC25922 [3]: 0.18 | Synergistic activity (FIC value) ATCC9027 [4]: 0.28 | MIC [5]: 256 µg/mL (≈ 756 µM) | MIC [6]: 256 µg/mL (≈ 756 µM) | MIC [7]: 256 µg/mL (≈ 756 µM) | MIC [8]: 256 µg/mL (≈ 756 µM) | Synergistic effects against clinical strains of A. baumannii ([9]; clinical strains with various resistance profiles): broad-spectrum synergistic effects | FIC ([9]; strain aba 30): 0.08 | FIC ([9]; strain aba 39 (polymyxin E-resistant)): 0.13 | FIC ([9]; strain aba 1611): 0.09 | FIC ([9]; strain aba 1613): 0.13 | FIC ([9]; strain aba 1617): 0.08 | FIC ([9]; strain aba 1638): 0.02 | FIC ([9]; strain aba 1645): 0.16 | FIC ([9]; strain aba 4201): 0.09 | FIC ([9]; strain aba 4230): 0.06 | FIC ([9]; strain aba 6359): 0.09 | FIC ([9]; strain aba 6380): 0.14 | FIC ([9]; strain aba 6382): 0.09 | FIC ([9]; strain aba 6410): 0.06 | FIC ([9]; strain aba mia): 0.05 | FIC ([9]; strain aba pmrA (polymyxin E-resistant)): 0.16 | survival rate ([10]; Day 5): above 60% | synergistic effects with Polymyxin E in vivo [10]: synergistic effects

CC(C)(C)c1cc(-c2csc(N=C(N)N)n2)cc(C(C)(C)C)c1O [Compound I-14]
Synergistic activity (FIC value) ATCC13883 [1]: 0.31 | Synergistic activity (FIC value) ATCC19606 [2]: 0.13 | Synergistic activity (FIC value) ATCC25922 [3]: 0.38 | Synergistic activity (FIC value) ATCC9027 [4]: 0.53 | MIC [5]: 256 µg/mL (≈ 739 µM) | MIC [6]: 256 µg/mL (≈ 739 µM) | MIC [7]: 256 µg/mL (≈ 739 µM) | MIC [8]: 256 µg/mL (≈ 739 µM) | survival rate ([10]; Day 5): 80% | synergistic effects with Polymyxin E in vivo [10]: synergistic effects

polymyxin E
MIC ([11]; strain aba39): 64 µg/mL | MIC ([11]; strain aba pmrA): 256 µg/mL | therapeutic effect on bacteremia in mice ([10]; Polymyxin E alone 0.5 mg/kg, Day 5, all mice died): no therapeutic effects

NC(N)=Nc1nc(-c2cccc3c(Cl)cccc23)c[nH]1 [Compound I-65]
Synergistic activity (FIC value) ATCC13883 [1]: 1.25 | Synergistic activity (FIC value) ATCC19606 [2]: 0.5 | Synergistic activity (FIC value) ATCC25922 [3]: 1.25 | Synergistic activity (FIC value) ATCC9027 [4]: 1.25 | Antibacterial activity of the compound of Formula I, ATCC13883 [5]: 256 µg/mL | Antibacterial activity of the compound of Formula I, ATCC19606 [6]: 256 µg/mL | Antibacterial activity of the compound of Formula I, ATCC25922 [7]: 256 µg/mL | Antibacterial activity of the compound of Formula I, ATCC9027 [8]: 256 µg/mL

CC(C)c1ccc(-c2c[nH]c(N=C3NCCCN3)n2)cc1 [Compound I-166]
Synergistic activity (FIC value) ATCC13883 [1]: 1.25 | Synergistic activity (FIC value) ATCC19606 [2]: 1.25 | Synergistic activity (FIC value) ATCC25922 [3]: 0.5 | Synergistic activity (FIC value) ATCC9027 [4]: 1.25 | Antibacterial activity of the compound of Formula I, ATCC13883 [5]: 256 µg/mL | Antibacterial activity of the compound of Formula I, ATCC19606 [6]: 256 µg/mL | Antibacterial activity of the compound of Formula I, ATCC25922 [7]: 256 µg/mL | Antibacterial activity of the compound of Formula I, ATCC9027 [8]: 256 µg/mL

NC(N)=Nc1nc(-c2c(Br)cc(Br)cc2Br)c(I)o1 [Compound I-53]
Synergistic activity (FIC value) ATCC13883 [1]: 0.25 | Synergistic activity (FIC value) ATCC19606 [2]: 0.28 | Synergistic activity (FIC value) ATCC25922 [3]: 0.5 | Synergistic activity (FIC value) ATCC9027 [4]: 0.63 | Antibacterial activity of the compound of Formula I, ATCC13883 [5]: 256 µg/mL | Antibacterial activity of the compound of Formula I, ATCC19606 [6]: 256 µg/mL | Antibacterial activity of the compound of Formula I, ATCC25922 [7]: 256 µg/mL | Antibacterial activity of the compound of Formula I, ATCC9027 [8]: 256 µg/mL

FC(F)(F)c1ccc(-c2cccs2)c(-c2c[nH]c(N=C3NCCCN3)n2)c1 [Compound I-140]
Synergistic activity (FIC value) ATCC13883 [1]: 1.25 | Synergistic activity (FIC value) ATCC19606 [2]: 0.51 | Synergistic activity (FIC value) ATCC25922 [3]: 1.25 | Synergistic activity (FIC value) ATCC9027 [4]: 0.52 | Antibacterial activity of the compound of Formula I, ATCC13883 [5]: 256 µg/mL | Antibacterial activity of the compound of Formula I, ATCC19606 [6]: 256 µg/mL | Antibacterial activity of the compound of Formula I, ATCC25922 [7]: 256 µg/mL | Antibacterial activity of the compound of Formula I, ATCC9027 [8]: 256 µg/mL

NC(N)=Nc1nc(-c2cccc3cccc(Cl)c23)c(Cl)s1 [Compound I-62]
Synergistic activity (FIC value) ATCC13883 [1]: 0.52 | Synergistic activity (FIC value) ATCC19606 [2]: 0.52 | Synergistic activity (FIC value) ATCC25922 [3]: 0.63 | Synergistic activity (FIC value) ATCC9027 [4]: 1.25 | Antibacterial activity of the compound of Formula I, ATCC13883 [5]: 128 µg/mL | Antibacterial activity of the compound of Formula I, ATCC19606 [6]: 256 µg/mL | Antibacterial activity of the compound of Formula I, ATCC25922 [7]: 128 µg/mL | Antibacterial activity of the compound of Formula I, ATCC9027 [8]: 64 µg/mL

NC(N)=Nc1nc(-c2cccc(C(F)(F)F)c2)c[nH]1 [Compound I-42]
Synergistic activity (FIC value) ATCC13883 [1]: 1.25 | Synergistic activity (FIC value) ATCC19606 [2]: 1.25 | Synergistic activity (FIC value) ATCC25922 [3]: 0.53 | Synergistic activity (FIC value) ATCC9027 [4]: 1.25 | Antibacterial activity of the compound of Formula I, ATCC13883 [5]: 256 µg/mL | Antibacterial activity of the compound of Formula I, ATCC19606 [6]: 256 µg/mL | Antibacterial activity of the compound of Formula I, ATCC25922 [7]: 256 µg/mL | Antibacterial activity of the compound of Formula I, ATCC9027 [8]: 256 µg/mL
